Measurements: publication PMC3932302 (Clinical cancer research : an official journal of the …, 2013)
One block for each molecule: values may come before it.

Legend:
Type in all cases: cell-based
[1] = target: T1, organic cation transporter 1 (OCT1) (Homo sapiens, UniProt O15245); assay: inhibition of TEA uptake into OCT1-expressing cells at […]; details: read-out: % inhibition at 50 μmol/L
T1 sequence (O15245 1-554): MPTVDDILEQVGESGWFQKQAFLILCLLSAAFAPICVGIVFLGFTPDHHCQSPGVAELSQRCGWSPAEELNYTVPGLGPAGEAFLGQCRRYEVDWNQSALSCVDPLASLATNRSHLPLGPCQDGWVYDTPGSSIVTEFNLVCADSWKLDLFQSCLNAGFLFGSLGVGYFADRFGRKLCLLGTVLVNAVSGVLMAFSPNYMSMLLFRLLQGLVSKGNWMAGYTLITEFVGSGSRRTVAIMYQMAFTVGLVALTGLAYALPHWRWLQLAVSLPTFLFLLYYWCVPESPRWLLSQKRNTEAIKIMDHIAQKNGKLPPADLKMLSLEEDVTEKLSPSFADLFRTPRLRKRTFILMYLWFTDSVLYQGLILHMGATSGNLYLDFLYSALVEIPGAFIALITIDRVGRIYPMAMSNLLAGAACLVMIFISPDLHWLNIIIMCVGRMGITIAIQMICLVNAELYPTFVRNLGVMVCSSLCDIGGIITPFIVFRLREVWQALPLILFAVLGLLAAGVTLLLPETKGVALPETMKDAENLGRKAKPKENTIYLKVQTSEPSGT

[2] = target: T1, organic cation transporter 1 (OCT1); assay: inhibition of […]TEA uptake into HEK-OCT1 cells at […]
[3] = target: T1, organic cation transporter 1 (OCT1)

inhibition at 50 µM [1]: 90.7 ± 1%
SMILES: Cc1ccc(NC(=O)c2ccc(CN3CCNCC3)cc2)cc1Nc1nccc(-c2cccnc2)n1 [N-desmethyl imatinib]

SMILES: CCN1/C(=C/c2ccc3ccccc3[n+]2CC)C=Cc2ccccc21 [decynium22]
inhibition of [14C]TEA uptake into HEK-OCT1 cells at 5 μmol/L [2]: OCT1-dependent TEA uptake was significantly reduced in the presence of the inhibitors prazosin and decynium22 (Fig. 4A)

SMILES: COc1cc2nc(N3CCN(C(=O)c4ccco4)CC3)nc(N)c2cc1OC [prazosin]
inhibition of [14C]TEA uptake into HEK-OCT1 cells [3]: OCT1-dependent TEA uptake was significantly reduced in the presence of the inhibitors prazosin and decynium22 (Fig. 4A)
